Results on 22 compounds are retold here after patent publication US10800792B2, “Inhibitors of Bruton's tyrosine kinase and method of their use” (JANSSEN PHARMACEUTICA NV, priority 2015, dated 2020).

Each structure is given as a SMILES string.

Sequence of unphosphorylated-BTK kinase domain (UP-BTK), GST-tagged human BTK (389-659aa) (Q06187 389-659): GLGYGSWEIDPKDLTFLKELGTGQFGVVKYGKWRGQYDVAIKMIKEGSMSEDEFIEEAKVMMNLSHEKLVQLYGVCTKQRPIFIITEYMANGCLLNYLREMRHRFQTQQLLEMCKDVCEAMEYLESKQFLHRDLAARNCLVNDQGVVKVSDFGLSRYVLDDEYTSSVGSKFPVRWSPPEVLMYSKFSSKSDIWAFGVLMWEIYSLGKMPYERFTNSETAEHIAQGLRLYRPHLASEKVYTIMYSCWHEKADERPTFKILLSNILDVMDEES

In the first test the target is unphosphorylated-BTK kinase domain (UP-BTK), GST-tagged human BTK (389-659aa) (Homo sapiens (Human), UniProt Q06187). As to the kind of experiment: BTK kinase Lanthascreen binding assay. The conditions noted are these: pIC50 = negative log of the IC50 in molar; 60 minutes incubation, 50 nM Tracer 236. How it is done:
BTK Kinase Lanthascreen Binding Assay:
A BTK kinase lanthascreen binding assay monitors compound binding to unphosphorylated-BTK kinase domain (UP-BTK), by competing with a fluorescent labeled tracer. […] Data were analyzed using Xlfit™ version 5.3 from ID Business Solutions (Guildford), Microsoft Excel add-in. pIC50 refers to the negative log of the IC50 in molar
In general terms: In TR-FRET formats the signal depends on donor and acceptor labels being close together.
Take `C=CC(=O)N1CC[C@@H](NC(=O)c2sc3nccc4c3c2NC(=O)N4c2ccc(Oc3ccccc3)cc2C)C1` (single isomer, unassigned) [Example 5, (R)—N-(1-Acryloylpyrrolidin-3-yl)-5-(*S)-(2-methyl-4-phenoxyphenyl)-4-oxo-4,5-dihydro-3H-1-thia-3,5,8-triazaacenaphthylene-2-carboxamide]: the “BTK_I_binding pIC50” value was determined as 8.1.

Take `Cc1cc(Oc2ccccc2)ccc1N1C(=O)Nc2c(C(=O)N[C@@H]3CCCN(C(=O)/C(C#N)=C/C(C)(C)N4CCOCC4)C3)sc3nccc1c23` (single isomer, unassigned) [Example 43, (R,E)-N-(1-(2-Cyano-4-methyl-4-morpholinopent-2-enoyl)piperidin-3-yl)-5-(*S)-(2-methyl-4-phenoxyphenyl)-4-oxo-4,5-dihydro-3H-1-thia-3,5,8-triazaacenaphthylene-2-carboxamide]: the “BTK_I_binding pIC50” value is reported as 7.2.

`C#CC(=O)N1CCC[C@@H](NC(=O)c2sc3nccc4c3c2NC(=O)N4c2ccc(Oc3ccccc3)cc2C)C1` (single isomer, unassigned) [Example 46, (R)-5-(*S)-(2-methyl-4-phenoxyphenyl)-4-oxo-N-(1-propioloylpiperidin-3-yl)-4,5-dihydro-3H-1-thia-3,5,8-triazaacenaphthylene-2-carboxamide]: the “BTK_I_binding pIC50” value is given as 7.9.

For `C=C(F)C(=O)N1CCC[C@@H](NC(=O)c2sc3nccc4c3c2NC(=O)N4c2ccc(Oc3ccccc3)cc2C)C1` (single isomer, unassigned) [Example 49, (R)—N-(1-(2-Fluoroacryloyl)piperidin-3-yl)-5-(*S)-(2-methyl-4-phenoxyphenyl)-4-oxo-4,5-dihydro-3H-1-thia-3,5,8-triazaacenaphthylene-2-carboxamide], the “BTK_I_binding pIC50” value worked out at 7.2.

As for `CC#CC(=O)N1CCC[C@@H](NC(=O)c2sc3nccc4c3c2NC(=O)N4c2ccc(Oc3ccccc3)cc2C)C1` (single isomer, unassigned) [Example 55, (R)—N-(1-(But-2-ynoyl)piperidin-3-yl)-5-(*S)-(2-methyl-4-phenoxyphenyl)-4-oxo-4,5-dihydro-3H-1-thia-3,5,8-triazaacenaphthylene-2-carboxamide], the “BTK_I_binding pIC50” value turned out to be 7.4.

As to `Cc1cc(Oc2ccccc2)ccc1N1C(=O)Nc2c(C(=O)N[C@H]3CCOC3)sc3nccc1c23` (single isomer, unassigned) [Example 68, (S)-5-(*S)-(2-Methyl-4-phenoxyphenyl)-4-oxo-N-(tetrahydrofuran-3-yl)-4,5-dihydro-3H-1-thia-3,5,8-triazaacenaphthylene-2-carboxamide], the “BTK_I_binding pIC50” value was found to be 7.7.

Take `Cc1cc(Oc2ccccc2)ccc1N1C(=O)Nc2c(C(=O)N[C@@H]3CCOC3)sc3nccc1c23` (single isomer, unassigned) [Example 80, (R)-5-(*S)-(2-Methyl-4-phenoxyphenyl)-4-oxo-N-(tetrahydrofuran-3-yl)-4,5-dihydro-3H-1-thia-3,5,8-triazaacenaphthylene-2-carboxamide]: the “BTK_I_binding pIC50” value is 7.8.

As for `CCC(=O)N1CC[C@@H](NC(=O)c2sc3nccc4c3c2NC(=O)N4c2ccc(Oc3ccccc3)cc2C)C1` (single isomer, unassigned) [Example 84, (R)-5-(*S)-(2-Methyl-4-phenoxyphenyl)-4-oxo-N-(1-propionylpyrrolidin-3-yl)-4,5-dihydro-3H-1-thia-3,5,8-triazaacenaphthylene-2-carboxamide], the “BTK_I_binding pIC50” value stood at 7.5.

As to `Cc1cc(Oc2ccccc2)ccc1N1C(=O)Nc2c(C(=O)N[C@@H]3CCN(C(C)C)C3)sc3nccc1c23` (single isomer, unassigned) [Example 93, (R)—N-(1-Isopropylpyrrolidin-3-yl)-5-(*S)-(2-methyl-4-phenoxyphenyl)-4-oxo-4,5-dihydro-3H-1-thia-3,5,8-triazaacenaphthylene-2-carboxamide], the “BTK_I_binding pIC50” value was 7.1.

Take `Cc1cc(Oc2ccccc2)ccc1N1C(=O)Nc2c(C(=O)N[C@@H]3CCCNC3)sc3nccc1c23` (single isomer, unassigned) [Example 98, (R)-5-(*S)-(2-Methyl-4-phenoxyphenyl)-4-oxo-N-(piperidin-3-yl)-4,5-dihydro-3H-1-thia-3,5,8-triazaacenaphthylene-2-carboxamide]: the “BTK_I_binding pIC50” value was found to be 7.3.

Take `Cc1cc(Oc2ccccc2)ccc1N1C(=O)Nc2c(C(=O)N[C@@H]3CCCN(C(=O)CCO)C3)sc3nccc1c23` (single isomer, unassigned) [Example 99, (R)—N-(1-(3-Hydroxypropanoyl)piperidin-3-yl)-5-(*S)-(2-methyl-4-phenoxyphenyl)-4-oxo-4,5-dihydro-3H-1-thia-3,5,8-triazaacenaphthylene-2-carboxamide]: the “BTK_I_binding pIC50” value was found to be 7.6.

Take `C/C=C/C(=O)N1CCC[C@@H](NC(=O)c2sc3nccc4c3c2NC(=O)N4c2ccc(Oc3ccccc3)cc2C)C1` (single isomer, unassigned) [Example 100, (R,E)-N-(1-(But-2-enoyl)piperidin-3-yl)-5-(*S)-(2-methyl-4-phenoxyphenyl)-4-oxo-4,5-dihydro-3H-1-thia-3,5,8-triazaacenaphthylene-2-carboxamide]: the “BTK_I_binding pIC50” value amounted to 7.1.

Turning to `CNCC(=O)N1CCC[C@@H](NC(=O)c2sc3nccc4c3c2NC(=O)N4c2ccc(Oc3ccccc3)cc2C)C1` (single isomer, unassigned) [Example 183, (R)-5-(*S)-(2-Methyl-4-phenoxyphenyl)-N-(1-(2-(methylamino)acetyl)piperidin-3-yl)-4-oxo-4,5-dihydro-3H-1-thia-3,5,8-triazaacenaphthylene-2-carboxamide], the “BTK_I_binding pIC50” value is reported as 7.5.

With `CCC(=O)N1CCC[C@@H](NC(=O)c2sc3nccc4c3c2NC(=O)N4c2ccc(Oc3ccccc3)cc2C)C1` (single isomer, unassigned) [Example 184, (R)-5-(*S)-(2-Methyl-4-phenoxyphenyl)-4-oxo-N-(1-propionylpiperidin-3-yl)-4,5-dihydro-3H-1-thia-3,5,8-triazaacenaphthylene-2-carboxamide], the “BTK_I_binding pIC50” value is 7.4.

In the case of `CNCC(=O)N1CCC[C@@H](NC(=O)c2sc3nccc4c3c2NC(=O)N4c2ccc(Oc3ccccc3)cc2C)C1` (single isomer, unassigned) [Example 253, (R)-5-(*R)-(2-Methyl-4-phenoxyphenyl)-N-(1-(2-(methylamino)acetyl)piperidin-3-yl)-4-oxo-4,5-dihydro-3H-1-thia-3,5,8-triazaacenaphthylene-2-carboxamide], the “BTK_I_binding pIC50” value was determined as 6.2.

Still in this test, the particulars now being: pIC50 = negative log of the IC50 in molar; 60 minutes incubation, 50 nM Tracer 236; read-out: BTK_I_binding pIC50 (converted).
`C=CC(=O)N1C[C@@H](F)[C@@H](NC(=O)c2sc3nccc4c3c2NC(=O)N4c2ccc(Oc3ccccc3)cc2C)C1` (single isomer, unassigned) [Example 28, N-((3S,4R)-1-Acryloyl-4-fluoropyrrolidin-3-yl)-5-(*S)-(2-methyl-4-phenoxyphenyl)-4-oxo-4,5-dihydro-3H-1-thia-3,5,8-triazaacenaphthylene-2-carboxamide]: the IC50 was 12.6 nM.

As for `Cc1cc(Oc2ccccc2)ccc1N1C(=O)Nc2c(C(=O)N[C@@H]3CCCN(C#N)C3)sc3nccc1c23` (single isomer, unassigned) [Example 35, (R)—N-(1-Cyanopiperidin-3-yl)-5-(*S)-(2-methyl-4-phenoxyphenyl)-4-oxo-4,5-dihydro-3H-1-thia-3,5,8-triazaacenaphthylene-2-carboxamide], the IC50 was 31.6 nM.

Still in this test, the particulars now being: unphosphorylated-BTK kinase domain, 50 nM Tracer 236, 60 minutes; pIC50 = negative log of the IC50 in molar.
Consider `Cc1cc(Oc2ccccc2)ccc1N1C(=O)Nc2c(C(=O)N[C@@H]3CCCN(C(=O)CCO)C3)sc3nccc1c23` (single isomer, unassigned) [Example 318, (R)—N-(1-(3-Hydroxypropanoyl)piperidin-3-yl)-5-(*R)-(2-methyl-4-phenoxyphenyl)-4-oxo-4,5-dihydro-3H-1-thia-3,5,8-triazaacenaphthylene-2-carboxamide], for which the “BTK_I_binding pIC50” value turned out to be 5.8.

For the compound `Cc1cc(Oc2ccccc2)ccc1N1C(=O)Nc2c(C(=O)N[C@H]3CCOC3)sc3nccc1c23` (single isomer, unassigned) [Example 323, (S)-5-(*R)-(2-Methyl-4-phenoxyphenyl)-4-oxo-N-(tetrahydrofuran-3-yl)-4,5-dihydro-3H-1-thia-3,5,8-triazaacenaphthylene-2-carboxamide], the “BTK_I_binding pIC50” value was determined as 5.7.

For `CCC(=O)N1CC[C@@H](NC(=O)c2sc3nccc4c3c2NC(=O)N4c2ccc(Oc3ccccc3)cc2C)C1` (single isomer, unassigned) [Example 325, (R)-5-(*R)-(2-Methyl-4-phenoxyphenyl)-4-oxo-N-(1-propionylpyrrolidin-3-yl)-4,5-dihydro-3H-1-thia-3,5,8-triazaacenaphthylene-2-carboxamide], the “BTK_I_binding pIC50” value worked out at 5.7.

For the compound `CCC(=O)N1CCC[C@@H](NC(=O)c2sc3nccc4c3c2NC(=O)N4c2ccc(Oc3ccccc3)cc2C)C1` (single isomer, unassigned) [Example 345, (R)-5-(*R)-(2-Methyl-4-phenoxyphenyl)-4-oxo-N-(1-propionylpiperidin-3-yl)-4,5-dihydro-3H-1-thia-3,5,8-triazaacenaphthylene-2-carboxamide], the “BTK_I_binding pIC50” value was below 5.

The test is the same for the next values; noted with them: unphosphorylated-BTK kinase domain, 50 nM Tracer 236, 60 minutes; pIC50 = negative log of the IC50 in molar; read-out: BTK_I_binding pIC50 (converted).
As for `Cc1cc(Oc2ccccc2)ccc1N1C(=O)Nc2c(C(=O)N[C@@H]3CCCN(C(=O)/C(C#N)=C/C4CC4)C3)sc3nccc1c23` (single isomer, unassigned) [Example 365, (R,E)-N-(1-(2-Cyano-3-cyclopropylacryloyl)piperidin-3-yl)-5-(*R)-(2-methyl-4-phenoxyphenyl)-4-oxo-4,5-dihydro-3H-1-thia-3,5,8-triazaacenaphthylene-2-carboxamide], the IC50 is 50.1 nM.
